Laboratory results taken from patent publication US20230148599A1, “FUNGICIDAL MIXTURES CONTAINING PYRAZOLE DERIVATIVES” (FMC Corporation, priority 2020, published 2023).

Legend:
Format in all cases: in vivo
Details in all cases: 50 ppm, 100 = 100% disease control, 0 = no control
[1] = test system: Botrytis cinerea; assay: Test E: tomato Botrytis, preventive spray on tomato seedlings
Excerpt: (§1) General protocol for preparing test suspensions for Tests A-F: the test compounds were first dissolved in acetone in an amount equal to 3% of the final volume and then suspended at the desired concentration (in ppm) in acetone and purified water (50/50 mix by volume) containing 250 ppm of the surfactant PEG400 (polyhydric alcohol esters). The resulting test suspensions were then used in Tests A-F.
(§2) The test suspension was sprayed to the point of run-off on tomato seedlings. The following day the seedlings were inoculated with a spore suspension of Botrytis cinerea (the causal agent of tomato Botrytis) and incubated in a saturated atmosphere at 20° C. for 48 h, and then moved to a growth chamber at 24° C. for 3 days, after which time visual disease ratings were made.
(§3) A rating of 100 indicates 100% disease control and a rating of 0 indicates no disease control (relative to the controls). A dash (−) indicates the compound was not tested.

[2] = test system: Blumeria graminis f. sp. tritici; assay: Test C: wheat powdery mildew, preventive spray on wheat seedlings
Excerpt: as §1
The test suspension was sprayed to the point of run-off on wheat seedlings. The following day the seedlings were inoculated with a spore dust of Blumeria graminis f. sp. tritici, (also known as Erysiphe graminis f. sp. tritici, the causal agent of wheat powdery mildew) and incubated in a growth chamber at 20° C. for 8 days, after which time visual disease ratings were made.
as §3

[3] = test system: Puccinia recondita f. sp. tritici; assay: Test B: wheat leaf rust, preventive spray on wheat seedlings
Excerpt: as §1
The test solution was sprayed to the point of run-off on wheat seedlings. The following day the seedlings were inoculated with a spore suspension of Puccinia recondita f. sp. tritici (the causal agent of wheat leaf rust) and incubated in a saturated atmosphere at 20° C. for 24 h, and then moved to a growth chamber at 20° C. for 7 days, after which time disease ratings were made.
as §3

[4] = test system: Septoria tritici; assay: Test A: wheat leaf blotch, preventive spray on wheat seedlings
Excerpt: as §1
The test solution was sprayed to the point of run-off on wheat seedlings. The following day the seedlings were inoculated with a spore suspension of Septoria tritici (the causal agent of wheat leaf blotch) and incubated in a saturated atmosphere at 24° C. for 48 h, and then moved to a growth chamber at 20° C. for 17 days, after which time disease ratings were made.
as §3

[5] = test system: Alternaria solani; assay: Test F: tomato early blight, preventive spray on tomato seedlings
Excerpt: as §1
as §2, with “Alternaria solani” for “Botrytis cinerea”, “early blight)” for “Botrytis)”, “27°” for “20°”, “20°” for “24°”
as §3

[6] = test system: Phakopsora pachyrhizi; assay: Test D: Asian soybean rust, preventive spray on soybean seedlings
Excerpt: as §1
The test solution was sprayed to the point of run-off on soybean seedlings. The following day the seedlings were inoculated with a spore suspension of Phakopsora pachyrhizi (the causal agent of Asian soybean rust) and incubated in a saturated atmosphere at 22° C. for 24 h and then moved to a growth chamber at 22° C. for 8 days, after which time visual disease ratings were made.
as §3

## COc1ccc(-c2c(C)nn(C)c2Nc2c(F)cccc2[N+](=O)[O-])c(Cl)c1 [compound 27]
[1]
  Test E disease control rating: 100%
[2]
  Test C disease control rating: 91%
[3]
  Test B disease control rating: 100%
[4]
  Test A disease control rating: 100%
[5]
  Test F disease control rating: 99%
[6]
  Test D disease control rating: 87%

## Cc1nn(C)c(Nc2ccc(OC(F)F)cc2[N+](=O)[O-])c1-c1ccc(F)cc1Cl [compound 28]
[1]
  Test E disease control rating: 99%
[2]
  Test C disease control rating: 69%
[3]
  Test B disease control rating: 68%
[4]
  Test A disease control rating: 91%
[5]
  Test F disease control rating: 0%
[6]
  Test D disease control rating: 0%

## Cc1nn(C)c(Nc2ccc(OCC#N)cc2[N+](=O)[O-])c1-c1ccc(F)cc1Cl [compound 29]
[1]
  Test E disease control rating: 99%
[2]
  Test C disease control rating: 87%
[3]
  Test B disease control rating: 98%
[4]
  Test A disease control rating: 97%
[5]
  Test F disease control rating: 26%
[6]
  Test D disease control rating: 81%

## Cc1nn(C)c(Nc2cc(F)ccc2[N+](=O)[O-])c1-c1ccc(F)cc1Cl [compound 30]
[1]
  Test E disease control rating: 67%
[2]
  Test C disease control rating: 91%
[3]
  Test B disease control rating: 86%
[4]
  Test A disease control rating: 100%
[5]
  Test F disease control rating: 0%
[6]
  Test D disease control rating: 0%

## Cc1cc(Cl)c(Nc2c(-c3ccc(F)cc3Cl)c(C)nn2C)c([N+](=O)[O-])c1 [compound 31]
[1]
  Test E disease control rating: 99%
[2]
  Test C disease control rating: 100%
[3]
  Test B disease control rating: 100%
[4]
  Test A disease control rating: 100%
[5]
  Test F disease control rating: 76%
[6]
  Test D disease control rating: 98%

## Cc1nn(C)c(Nc2cc(F)c(F)cc2[N+](=O)[O-])c1-c1ccc(F)cc1Cl [compound 32]
[1]
  Test E disease control rating: 99%
[2]
  Test C disease control rating: 56%
[3]
  Test B disease control rating: 85%
[4]
  Test A disease control rating: 93%
[5]
  Test F disease control rating: 0%
[6]
  Test D disease control rating: 98%

## Cc1cc(Cl)cc([N+](=O)[O-])c1Nc1c(-c2ccc(F)cc2Cl)c(C)nn1C [compound 33]
[1]
  Test E disease control rating: 99%
[2]
  Test C disease control rating: 99%
[3]
  Test B disease control rating: 100%
[4]
  Test A disease control rating: 100%
[5]
  Test F disease control rating: 85%
[6]
  Test D disease control rating: 92%

## COc1ccc(-c2c(C)nn(C)c2Nc2c(Cl)cccc2[N+](=O)[O-])c(C)c1 [compound 35]
[1]
  Test E disease control rating: 0%
[2]
  Test C disease control rating: 0%
[3]
  Test B disease control rating: 85%
[4]
  Test A disease control rating: 99%
[5]
  Test F disease control rating: 0%
[6]
  Test D disease control rating: 0%

## Cc1nn(C)c(Nc2ccc(OCC(F)F)cc2[N+](=O)[O-])c1-c1ccc(F)cc1Cl [compound 36]
[1]
  Test E disease control rating: 100%
[2]
  Test C disease control rating: 56%
[3]
  Test B disease control rating: 89%
[4]
  Test A disease control rating: 100%
[5]
  Test F disease control rating: 0%
[6]
  Test D disease control rating: 25%

## Cc1nn(C)c(Nc2c(Cl)cc(Cl)cc2[N+](=O)[O-])c1-c1ccc(F)cc1Br [compound 37]
[1]
  Test E disease control rating: 88%
[2]
  Test C disease control rating: 98%
[3]
  Test B disease control rating: 100%
[4]
  Test A disease control rating: 100%
[5]
  Test F disease control rating: 78%
[6]
  Test D disease control rating: 0%

## Cc1nn(C)c(Nc2c(Cl)cccc2[N+](=O)[O-])c1-c1c(F)cccc1Cl [compound 38]
[1]
  Test E disease control rating: 88%
[2]
  Test C disease control rating: 95%
[3]
  Test B disease control rating: 99%
[4]
  Test A disease control rating: 100%
[5]
  Test F disease control rating: 0%
[6]
  Test D disease control rating: 0%

## Cc1nn(C)c(Nc2c(F)cc(F)cc2[N+](=O)[O-])c1-c1c(F)cccc1Cl [compound 39]
[1]
  Test E disease control rating: 88%
[2]
  Test C disease control rating: 99%
[3]
  Test B disease control rating: 100%
[4]
  Test A disease control rating: 100%
[5]
  Test F disease control rating: 99%
[6]
  Test D disease control rating: 73%

## Cc1cc(F)c(Nc2c(-c3ccc(F)cc3Br)c(C)nn2C)c([N+](=O)[O-])c1 [compound 40]
[1]
  Test E disease control rating: 98%
[2]
  Test C disease control rating: 100%
[3]
  Test B disease control rating: 100%
[4]
  Test A disease control rating: 100%
[5]
  Test F disease control rating: 100%
[6]
  Test D disease control rating: 82%

## Cc1nn(C)c(Nc2c(Cl)cccc2[N+](=O)[O-])c1-c1ccc(F)cc1Br [compound 41]
[1]
  Test E disease control rating: 77%
[2]
  Test C disease control rating: 94%
[3]
  Test B disease control rating: 100%
[4]
  Test A disease control rating: 100%
[5]
  Test F disease control rating: 0%
[6]
  Test D disease control rating: 77%

## Cc1cccc([N+](=O)[O-])c1Nc1c(-c2ccc(F)cc2Br)c(C)nn1C [compound 42]
[1]
  Test E disease control rating: 91%
[2]
  Test C disease control rating: 96%
[3]
  Test B disease control rating: 100%
[4]
  Test A disease control rating: 100%
[5]
  Test F disease control rating: 0%
[6]
  Test D disease control rating: 0%

## Cc1nn(C)c(Nc2c(Cl)cc(F)cc2[N+](=O)[O-])c1-c1ccc(F)cc1Br [compound 43]
[1]
  Test E disease control rating: 96%
[2]
  Test C disease control rating: 97%
[3]
  Test B disease control rating: 100%
[4]
  Test A disease control rating: 100%
[5]
  Test F disease control rating: 64%
[6]
  Test D disease control rating: 65%

## Cc1nn(C)c(Nc2ccc(F)cc2[N+](=O)[O-])c1-c1c(F)cccc1Cl [compound 44]
[1]
  Test E disease control rating: 95%
[2]
  Test C disease control rating: 98%
[3]
  Test B disease control rating: 99%
[4]
  Test A disease control rating: 100%
[5]
  Test F disease control rating: 46%
[6]
  Test D disease control rating: 0%

## CCc1nn(C)c(Nc2ccc(OC)cc2[N+](=O)[O-])c1-c1ccc(F)cc1F [compound 45]
[1]
  Test E disease control rating: 99%
[2]
  Test C disease control rating: 95%
[3]
  Test B disease control rating: 86%
[4]
  Test A disease control rating: 100%
[5]
  Test F disease control rating: 33%
[6]
  Test D disease control rating: 0%

## CCc1nn(C)c(Nc2c(F)cccc2[N+](=O)[O-])c1-c1ccc(F)cc1F [compound 46]
[1]
  Test E disease control rating: 99%
[2]
  Test C disease control rating: 99%
[3]
  Test B disease control rating: 98%
[4]
  Test A disease control rating: 100%
[5]
  Test F disease control rating: 81%
[6]
  Test D disease control rating: 0%

## Cc1nn(C)c(Nc2c(F)cc(I)cc2[N+](=O)[O-])c1-c1ccc(F)cc1Cl [compound 47]
[1]
  Test E disease control rating: 95%
[2]
  Test C disease control rating: 89%
[3]
  Test B disease control rating: 97%
[4]
  Test A disease control rating: 100%
[5]
  Test F disease control rating: 96%
[6]
  Test D disease control rating: 92%

## COc1ccc(-c2c(C)nn(C)c2Nc2c(F)cccc2[N+](=O)[O-])c(C)c1 [compound 48]
[1]
  Test E disease control rating: 97%
[2]
  Test C disease control rating: 89%
[3]
  Test B disease control rating: 95%
[4]
  Test A disease control rating: 100%
[5]
  Test F disease control rating: 97%
[6]
  Test D disease control rating: 0%

## Cc1nn(C)c(Nc2c(Cl)cc(F)cc2[N+](=O)[O-])c1-c1c(F)cccc1Cl [compound 49]
[1]
  Test E disease control rating: 94%
[2]
  Test C disease control rating: 95%
[3]
  Test B disease control rating: 100%
[4]
  Test A disease control rating: 100%
[5]
  Test F disease control rating: 26%
[6]
  Test D disease control rating: 25%

## CCc1nn(C)c(Nc2c(F)cc(F)cc2[N+](=O)[O-])c1-c1ccc(F)cc1F [compound 50]
[1]
  Test E disease control rating: 92%
[2]
  Test C disease control rating: 100%
[3]
  Test B disease control rating: 98%
[4]
  Test A disease control rating: 100%
[5]
  Test F disease control rating: 98%
[6]
  Test D disease control rating: 0%

## Cc1nn(C)c(Nc2c(F)cc(F)cc2[N+](=O)[O-])c1-c1ccc(F)cc1Br [compound 51]
[1]
  Test E disease control rating: 98%
[2]
  Test C disease control rating: 100%
[3]
  Test B disease control rating: 100%
[4]
  Test A disease control rating: 100%
[5]
  Test F disease control rating: 99%
[6]
  Test D disease control rating: 79%

## COc1ccc(Nc2c(-c3ccc(F)cc3Br)c(C)nn2C)c([N+](=O)[O-])c1 [compound 52]
[1]
  Test E disease control rating: 99%
[2]
  Test C disease control rating: 90%
[3]
  Test B disease control rating: 100%
[4]
  Test A disease control rating: 100%
[5]
  Test F disease control rating: 94%
[6]
  Test D disease control rating: 59%
